Consider one molecule from patent publication US7163961B1, “Drugs, foods and oral compositions containing stilbene-type compounds” (Sunstar Inc., priority 1999, dated 2007).

Experiment [1] deals with male stroke-prone spontaneously hypertensive rats (SHRSP/izm). The experiment can be described thus: Preventive action on hypertension and cardiac hypertrophy in male rats. Format: in vivo, rat. To be noted: 8 weeks. Here is the method: The ability of the composition of the invention to prevent a rise in blood pressure and cardiac hypertrophy was researched using male rats. Firstly, 5- to 6-week-old male stroke-prone spontaneously hypertensive rats (SHRSP/izm) were grouped into a resveratrol group and a control group. The rats were fed ad libitum with “Powdery Mixed Feed SP” (manufacture by Funahashi Farm). The resveratrol group was administered resveratrol in an amount of 5 mg/kg per day. The administration was conducted by the intended clinical route, i.e., orally. The rats were force-fed orally once a day with a Teflon gastric tube. The dose was adjusted to 1 ml per 100 g of the body weight using a water for injection listed in The Japanese Pharmacopoeia, calculated according to the measured body weight of the individual rats. The control group was given the same amount of the water for injection listed in the Japanese Pharmacopoeia only. Each group had 5 rats that were bred for 8 weeks. The blood pressure of the rats was measured every 2 weeks without anesthesia by means of a rat caudal artery sphygmomanometer. After the breeding period, the rats were slaughtered for dissection and the ratio of the weight of the heart to the total body weight of the rats was measured.

Experiment [2] deals with ovariectomized female stroke-prone spontaneously hypertensive rats (SHRSP/izm). The experiment can be described thus: Preventive action on hypertension, cardiac hypertrophy and cerebral apoplexy in ovariectomized rats. The class given is in vivo, rat. Particulars: feed with 1.5 g/kg of resveratrol added, 8 weeks. The text has this:
Rats subjected to climacteric conditions were studied to estimate the effect of the composition of the invention in preventing a rise in blood pressure, cardiac hypertrophy and cerebral apoplexy. Specifically, 18-week-old female stroke-prone spontaneously hypertensive rats (SHRSP/izm) were ovariectomized and subjected to climacteric conditions. Then, the rats were grouped into a resveratrol group and a control group. Also provided a sham group of rats which received a sham operation, that is, a laparotomy without ovary removal. The rats were fed ad libitum. The control group and sham group were fed with “Powdery Mixed Feed SP” (manufactured by Funahashi Farm), and the resveratrol group was fed with the same mixed feed with 1.5 g/kg of resveratrol added. Five rats in each group were bred for 8 weeks. The blood pressure of the rats was measured every week without anesthesia by means of a rat caudal artery sphygmomanometer. After the breeding period, the rats were slaughtered for dissection.

For another experiment, the system named is osteoblastic cells. To be noted: cultured osteoblastic cell strain; Biochem. Biophys. Res. Commun. 253, 859–863 (1998); cited from earlier work.
Experiment [3] has as its system ovariectomized female stroke-prone spontaneously hypertensive rats (SHRSP/izm). The experiment can be described thus: Preventive action on decrease in bone weight in ovariectomized rats (climacteric conditions). Format: in vivo, rat. Particulars: left thigh bone, resveratrol in feed about 20 mg/kg per day, 8 weeks, mean ± SD, n = 5. Here is the method: Rats subjected to climacteric conditions were studied to estimate the effect of the composition of the invention in preventing a decrease in bone weight. Specifically, 18-week-old female stroke-prone spontaneously hypertensive rats (SHRSP/izm) were ovariectomized and subjected to climacteric conditions. Then, the rats were grouped into a resveratrol group to which resveratrol was administered and a control group. Also provided was a sham group of rats which received a sham operation, that is, a laparotomy without ovary removal. The rats were fed ad libitum. The control group and sham group were fed with “Powdery Mixed Feed SP” (manufactured by Funahashi Farm), and the resveratrol group was fed with the same feed with resveratrol added thereto. The amount of added resveratrol administered was adjusted to about 20 mg/kg per day. Each group had 5 rats that were bred for 8 weeks. After the breeding period, the rats were slaughtered for dissection. The left thigh bone was removed from each group's rats. The thigh bones were tested for their bone density and measured for their breaking load and breaking energy values using “EZ-test” (manufactured by Shimadzu Corporation), whereby their bone strength was evaluated.

In the case of `Oc1ccc(C=Cc2cc(O)cc(O)c2)cc1` [Resveratrol, 3,5,4′-stilbenetriol], the “Heart weight per body weight” value in experiment [1] (5 mg/kg per day orally by gastric tube, mean ± SD, n = 5) is listed as 0.557 ± 0.024%. Moreover, the “Inhibition of rise in blood pressure (FIG. 2)” value in experiment [1] (5 mg/kg per day orally, caudal artery sphygmomanometer, every 2 weeks) was “significantly higher action to inhibit a rise in the blood pressure”. Moreover, in experiment [2], the “Blood pressure compared with sham group” value is “about the same as that of the sham group”. The “Cerebral infarction in brain tissue” value in experiment [2] (5 rats, control group 4 rats out of 5) is “not found in any rats”. Also, in experiment [2] (caudal artery sphygmomanometer, weekly, without anesthesia), the “Inhibition of rise in blood pressure (FIG. 1)” value is listed as “significantly higher action to inhibit a rise in the blood pressure than the control group”. For the same molecule, in experiment [2] (mean ± SD, n = 5), the “Brain weight per body weight” value turned out to be 0.803 ± 0.02% and the “Heart weight per body weight” value came out at 0.424 ± 0.023%. Further, in the experiment with osteoblastic cells, the “Activity of alkaline phosphatase” value is “accelerates the activity of alkaline phosphatase”, the “Activity of prolyl hydroxylase” value was “enhances the activity of prolyl hydroxylase” and the “Proliferation of osteoblastic cells” value was “accelerates the proliferation of osteoblastic cells”. In experiment [3] (EZ-test), this molecule showed a Breaking energy of 0.0523 ± 0.0073 J and a Breaking load of 99.46 ± 9.57 N. Further, the Bone density in experiment [3] stood at 1.479 ± 0.281 g/mL.
